Values of other authors in patent publication US20030236285A1, “Stabilized pharmaceutical compositions containing benzimidazole compounds” (priority 2002, published 2003).

Conditions: pH higher than 7

In the case of `Cc1c(OCC(F)(F)F)ccnc1C[S+]([O-])c1nc2ccccc2[nH]1` (stereo not shown) [lansoprazole], the rate of degradation is given as “reduced to negligible”.
